Remaining binding data for one compound are collected here from PMC10174618, “Monoterpenoid aryl hydrocarbon receptor allosteric antagonists protect against ultraviolet skin damage in female mice” (Nature Communications, 2023).

What all share (experiment): biochemical
Holding throughout (design): KINOMEscan scanMAX active site-directed competition binding assay, percent of control, 468 kinases
What all share (conditions): competition binding, percent of control

One assay addresses T1, PCTK2 (Homo sapiens, UniProt Q00537).
T1 construct: gene CDK17
Put shortly: (§1)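 Single-concentration screen (100 μM S-carvone) in a competition binding panel of 468 human kinases (KINOMEscan scanMAX); results given as percent of control, hit cutoff 35%.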

A further assay deals with T2, ERK3 (Homo sapiens, UniProt Q16659).
T2 construct: gene MAPK6
T2 sequence (Q16659 whole entry): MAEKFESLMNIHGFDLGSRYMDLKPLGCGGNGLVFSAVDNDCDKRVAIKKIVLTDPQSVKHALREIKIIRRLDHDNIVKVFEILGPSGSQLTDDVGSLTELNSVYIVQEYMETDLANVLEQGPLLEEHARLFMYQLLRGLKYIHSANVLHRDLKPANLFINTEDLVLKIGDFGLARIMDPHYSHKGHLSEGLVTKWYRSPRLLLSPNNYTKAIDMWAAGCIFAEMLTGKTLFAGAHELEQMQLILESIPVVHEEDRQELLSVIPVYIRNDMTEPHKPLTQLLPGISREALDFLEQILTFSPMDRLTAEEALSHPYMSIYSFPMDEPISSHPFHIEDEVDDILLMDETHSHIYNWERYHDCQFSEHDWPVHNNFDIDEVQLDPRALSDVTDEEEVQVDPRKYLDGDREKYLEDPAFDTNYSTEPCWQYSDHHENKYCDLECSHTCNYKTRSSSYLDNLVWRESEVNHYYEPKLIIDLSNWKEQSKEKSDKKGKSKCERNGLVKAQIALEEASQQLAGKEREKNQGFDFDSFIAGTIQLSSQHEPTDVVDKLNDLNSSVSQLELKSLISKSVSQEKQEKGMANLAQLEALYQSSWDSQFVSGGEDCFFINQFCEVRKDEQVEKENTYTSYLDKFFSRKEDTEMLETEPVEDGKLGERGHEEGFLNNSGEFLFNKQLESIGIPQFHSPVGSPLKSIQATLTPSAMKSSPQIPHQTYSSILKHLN
In outline:
as §1

For a further assay, the target named is KIT(D816H) (Homo sapiens, UniProt P10721, D816H). Put shortly:
as §1

The target in another assay is PIK3CA(H1047Y) (Homo sapiens, UniProt P42336, H1047Y). Put shortly:
as §1

Another assay deals with FER (Homo sapiens, UniProt P16591). Put shortly: as §1
Assay [1] has as its target T3, RSK2(Kin.Dom.2-C-terminal) (Homo sapiens, UniProt P51812).
T3 construct: gene RPS6KA3; Kin.Dom.2-C-terminal
In outline:
as §1

A further assay deals with EGFR(L861Q) (Homo sapiens, UniProt P00533, L861Q). Put shortly: as §1
Another assay addresses EGFR(L858R,T790M) (Homo sapiens, UniProt P00533, L858R/T790M). In outline: as §1
The next assay addresses FYN (Homo sapiens, UniProt P06241). In outline:
as §1

The target in assay [2] is T4, RSK4(Kin.Dom.1-N-terminal) (Homo sapiens, UniProt Q9UK32).
T4 construct: gene RPS6KA6; Kin.Dom.1-N-terminal
Put shortly:
as §1

Another assay addresses T5, SGK (Homo sapiens, UniProt O00141).
T5 construct: gene SGK1
Put shortly: as §1

Assay [3] has as its target T6, ABL1(F317L)-nonphosphorylated (Homo sapiens, UniProt P00519, F317L).
T6 construct: nonphosphorylated
In outline: as §1

A further assay concerns the target CAMK2A (Homo sapiens, UniProt Q9UQM7). In outline:
as §1

A further assay deals with CDK2 (Homo sapiens, UniProt P24941). In outline: as §1
The next assay concerns the target CDK9 (Homo sapiens, UniProt P50750). In outline: as §1
The target of a further assay is T7, ARK5 (Homo sapiens, UniProt O60285).
T7 construct: gene NUAK1
T7 sequence (O60285 whole entry): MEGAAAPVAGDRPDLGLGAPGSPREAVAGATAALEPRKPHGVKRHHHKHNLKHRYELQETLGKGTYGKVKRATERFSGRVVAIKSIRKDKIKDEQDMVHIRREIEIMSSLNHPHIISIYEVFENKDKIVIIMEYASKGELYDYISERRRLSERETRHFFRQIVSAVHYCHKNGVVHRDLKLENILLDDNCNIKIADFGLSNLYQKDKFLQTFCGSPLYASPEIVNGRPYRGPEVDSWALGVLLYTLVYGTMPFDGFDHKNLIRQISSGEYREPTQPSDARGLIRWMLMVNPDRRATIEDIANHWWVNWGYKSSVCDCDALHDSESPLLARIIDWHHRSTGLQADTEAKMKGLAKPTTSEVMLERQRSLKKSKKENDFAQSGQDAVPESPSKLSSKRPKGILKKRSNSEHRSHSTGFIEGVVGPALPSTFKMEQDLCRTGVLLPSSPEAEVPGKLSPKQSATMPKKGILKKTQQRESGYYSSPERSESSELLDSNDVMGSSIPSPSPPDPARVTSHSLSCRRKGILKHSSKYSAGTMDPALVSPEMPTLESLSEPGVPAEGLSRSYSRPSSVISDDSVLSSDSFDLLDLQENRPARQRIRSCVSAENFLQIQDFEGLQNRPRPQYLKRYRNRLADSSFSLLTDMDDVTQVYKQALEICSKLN
In outline:
as §1

The next assay addresses T8, YANK2 (Homo sapiens, UniProt Q9NY57).
T8 construct: gene STK32B
In outline:
as §1

In the next assay the target is CHEK2 (Homo sapiens, UniProt O96017). Put shortly:
as §1

A further assay concerns the target LATS1 (Homo sapiens, UniProt O95835). In outline: as §1
The target of a further assay is T9, CAMK1B (Homo sapiens, UniProt Q6P2M8).
T9 construct: gene PNCK
In outline:
as §1

The next assay concerns the target T10, ERK5 (Homo sapiens, UniProt Q13164).
T10 construct: gene MAPK7
In outline: as §1

LATS1, sequence (O95835 whole entry): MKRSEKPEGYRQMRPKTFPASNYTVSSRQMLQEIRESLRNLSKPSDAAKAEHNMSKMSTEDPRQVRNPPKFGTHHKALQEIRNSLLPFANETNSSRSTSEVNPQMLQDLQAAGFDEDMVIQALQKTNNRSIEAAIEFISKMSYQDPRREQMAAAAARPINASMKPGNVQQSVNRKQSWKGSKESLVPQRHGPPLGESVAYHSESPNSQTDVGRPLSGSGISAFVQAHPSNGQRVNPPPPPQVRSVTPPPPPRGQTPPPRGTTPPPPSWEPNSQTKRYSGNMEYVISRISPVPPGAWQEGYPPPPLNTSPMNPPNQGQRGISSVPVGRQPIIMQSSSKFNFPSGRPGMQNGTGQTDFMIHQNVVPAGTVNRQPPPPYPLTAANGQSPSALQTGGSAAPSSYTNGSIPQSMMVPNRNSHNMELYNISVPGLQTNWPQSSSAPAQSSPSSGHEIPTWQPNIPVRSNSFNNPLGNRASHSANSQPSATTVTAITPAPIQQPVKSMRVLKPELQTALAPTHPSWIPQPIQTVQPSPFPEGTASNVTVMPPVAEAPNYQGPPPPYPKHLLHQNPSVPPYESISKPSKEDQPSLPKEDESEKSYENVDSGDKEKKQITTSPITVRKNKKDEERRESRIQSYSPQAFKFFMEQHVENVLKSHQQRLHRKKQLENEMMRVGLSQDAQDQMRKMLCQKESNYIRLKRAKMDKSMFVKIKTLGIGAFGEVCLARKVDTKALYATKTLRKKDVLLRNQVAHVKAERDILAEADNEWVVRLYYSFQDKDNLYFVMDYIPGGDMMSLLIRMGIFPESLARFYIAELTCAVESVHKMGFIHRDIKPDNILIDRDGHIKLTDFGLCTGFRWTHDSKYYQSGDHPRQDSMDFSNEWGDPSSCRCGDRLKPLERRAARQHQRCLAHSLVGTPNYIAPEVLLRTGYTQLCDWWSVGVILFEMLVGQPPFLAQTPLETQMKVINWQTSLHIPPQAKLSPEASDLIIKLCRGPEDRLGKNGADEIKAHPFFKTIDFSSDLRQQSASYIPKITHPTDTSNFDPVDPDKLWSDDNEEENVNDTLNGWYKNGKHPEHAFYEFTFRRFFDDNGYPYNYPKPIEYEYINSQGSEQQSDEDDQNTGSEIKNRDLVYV
T5 sequence (O00141 whole entry): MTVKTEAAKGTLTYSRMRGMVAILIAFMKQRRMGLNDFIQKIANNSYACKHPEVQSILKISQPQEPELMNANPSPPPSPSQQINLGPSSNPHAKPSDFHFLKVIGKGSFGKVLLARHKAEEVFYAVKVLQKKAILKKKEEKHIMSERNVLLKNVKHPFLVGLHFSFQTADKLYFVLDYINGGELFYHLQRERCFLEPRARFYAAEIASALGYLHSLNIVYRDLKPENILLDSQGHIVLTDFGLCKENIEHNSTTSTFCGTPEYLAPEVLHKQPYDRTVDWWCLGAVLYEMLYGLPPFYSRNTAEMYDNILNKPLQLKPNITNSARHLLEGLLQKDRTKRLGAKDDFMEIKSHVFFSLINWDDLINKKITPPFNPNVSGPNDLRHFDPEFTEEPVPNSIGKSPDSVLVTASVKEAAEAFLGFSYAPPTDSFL
CDK9, sequence (P50750 whole entry): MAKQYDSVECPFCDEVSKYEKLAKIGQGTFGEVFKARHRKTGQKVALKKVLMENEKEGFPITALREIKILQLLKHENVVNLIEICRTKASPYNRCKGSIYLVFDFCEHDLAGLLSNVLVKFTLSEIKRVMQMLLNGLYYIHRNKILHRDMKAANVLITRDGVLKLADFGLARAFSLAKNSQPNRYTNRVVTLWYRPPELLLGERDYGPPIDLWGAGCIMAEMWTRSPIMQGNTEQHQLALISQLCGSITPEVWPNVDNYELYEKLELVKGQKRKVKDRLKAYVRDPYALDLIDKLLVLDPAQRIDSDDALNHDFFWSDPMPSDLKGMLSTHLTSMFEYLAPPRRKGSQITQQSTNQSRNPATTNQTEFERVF
T3 sequence (P51812 whole entry): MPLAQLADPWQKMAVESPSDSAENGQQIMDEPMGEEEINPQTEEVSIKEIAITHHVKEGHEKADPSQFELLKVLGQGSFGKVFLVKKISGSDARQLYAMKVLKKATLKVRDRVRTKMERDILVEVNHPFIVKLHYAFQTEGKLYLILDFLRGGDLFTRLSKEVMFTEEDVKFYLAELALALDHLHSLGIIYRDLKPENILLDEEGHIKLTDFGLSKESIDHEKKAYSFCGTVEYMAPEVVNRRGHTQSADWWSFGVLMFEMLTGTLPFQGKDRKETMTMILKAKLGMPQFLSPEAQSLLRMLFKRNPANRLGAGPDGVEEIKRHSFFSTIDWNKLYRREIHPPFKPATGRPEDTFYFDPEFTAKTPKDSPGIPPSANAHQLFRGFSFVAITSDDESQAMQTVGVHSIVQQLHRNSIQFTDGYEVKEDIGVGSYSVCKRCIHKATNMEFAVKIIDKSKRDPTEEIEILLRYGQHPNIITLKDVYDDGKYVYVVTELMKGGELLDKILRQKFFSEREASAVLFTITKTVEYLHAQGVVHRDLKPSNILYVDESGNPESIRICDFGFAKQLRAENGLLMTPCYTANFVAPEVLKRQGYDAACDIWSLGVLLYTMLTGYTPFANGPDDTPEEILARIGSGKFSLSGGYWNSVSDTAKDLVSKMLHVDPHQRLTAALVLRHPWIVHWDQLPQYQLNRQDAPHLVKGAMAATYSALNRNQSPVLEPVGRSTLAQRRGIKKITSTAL
FYN, sequence (P06241 whole entry): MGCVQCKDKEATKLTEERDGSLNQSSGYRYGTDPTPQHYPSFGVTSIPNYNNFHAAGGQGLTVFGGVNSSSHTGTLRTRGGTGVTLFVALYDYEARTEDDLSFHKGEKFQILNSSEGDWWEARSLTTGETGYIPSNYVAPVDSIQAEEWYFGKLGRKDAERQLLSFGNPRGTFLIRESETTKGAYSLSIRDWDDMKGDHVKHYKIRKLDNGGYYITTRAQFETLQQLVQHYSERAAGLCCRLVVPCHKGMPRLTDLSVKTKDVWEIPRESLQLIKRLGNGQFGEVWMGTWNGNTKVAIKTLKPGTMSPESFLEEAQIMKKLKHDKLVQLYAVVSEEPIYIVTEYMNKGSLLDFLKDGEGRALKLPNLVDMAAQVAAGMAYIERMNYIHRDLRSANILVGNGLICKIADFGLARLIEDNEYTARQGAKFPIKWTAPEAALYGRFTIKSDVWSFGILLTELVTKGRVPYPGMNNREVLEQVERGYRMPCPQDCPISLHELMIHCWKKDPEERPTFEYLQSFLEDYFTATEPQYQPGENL
T8 sequence (Q9NY57 whole entry): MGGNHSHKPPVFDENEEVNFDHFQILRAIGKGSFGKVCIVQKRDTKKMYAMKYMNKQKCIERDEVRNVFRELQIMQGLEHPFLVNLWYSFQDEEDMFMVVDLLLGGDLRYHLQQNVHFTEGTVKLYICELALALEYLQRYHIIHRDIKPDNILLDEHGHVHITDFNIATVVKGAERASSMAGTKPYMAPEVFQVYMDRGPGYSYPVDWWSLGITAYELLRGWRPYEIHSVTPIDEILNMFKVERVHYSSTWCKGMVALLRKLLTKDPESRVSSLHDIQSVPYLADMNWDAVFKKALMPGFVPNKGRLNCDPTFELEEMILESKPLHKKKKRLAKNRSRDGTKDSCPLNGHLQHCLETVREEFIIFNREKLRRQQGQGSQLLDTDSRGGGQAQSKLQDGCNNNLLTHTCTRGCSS

`C=C(C)[C@H]1CC=C(C)C(=O)C1` [S-carvone]: the remaining binding at 100 µM amounted to 97% on PCTK2; 73% on ERK3; 46% at KIT(D816H); 92% at PIK3CA(H1047Y); 75% at FER; 67% in assay [1]. The remaining binding at 100 µM on EGFR(L861Q) was 65%; on EGFR(L858R,T790M), 60%; at FYN it was 90%; in [2], 63%; at SGK, 70%; in assay [3], 78%. Also, the remaining binding at 100 µM at CAMK2A worked out at 79%; at CDK2, 85%; at CDK9, 85%; at ARK5, 100%; at YANK2 it was 79%; at CHEK2 it was 99%. For the same compound, the values for the remaining binding at 100 µM at LATS1, on CAMK1B and on ERK5 were 91%, 61% and 93%, respectively.
